This is an account of results in patent publication US11793746B2, “Intense skin hydration systems and methods” (priority 2020, dated 2023).

Data set [1] deals with human skin analog, Skin^2. In words: MTT cytotoxicity assay. The settings on record: cytotoxic = levels below 80% of untreated control. It is filed as cell-based. The text has this:
Preclinical studies used a three-dimensional metabolically and mitotically active in vitro human skin analog, Skin^2™. This human skin substrate consists of neonatal foreskin fibroblasts that secrete a functionally active extracellular matrix grown on a medical-grade nylon mesh cocultured with human neonatal foreskin keratinocytes that differentiate into a multilayered epidermis.
This Example tested cellular viability and measured cell respiration in vitro in response to the application of GC-100 preparations.
The toxicity of a substance can be quantified by sustained metabolic activity of the cell in the presence of test substance. The integrity of cellular metabolism can be evaluated using the MTT Coloration Assay, which relies on the metabolism of 3-[4,5-dimethylthiazol-2-yl]-2,5-diphenyl tetrazolium bromide by succinate dehydrogenase of the citric acid cycle. Since the metabolism of MTT is dependent on mitochondrial activity, the amount of metabolite produced can be correlated with the number of viable cells present per well. The metabolite concentration is measured via spectrophotometry, with the absorption value converted to an absolute number that describes cellular growth.
(Tetrazolium assays rely on reduction of a dye to a coloured formazan, in cell work by metabolically active cells.)

Data set [2] concerns PGE2 synthesis by 3T3 fibroblasts. In words: Inhibition of PGE2 synthesis by 3T3 fibroblasts (ELISA). Particulars: for [PGE2]: 24 h. It is filed as cell-based. The text has this: This Example establishes the anti-inflammatory potential of GC-100 by measuring the inhibition of PGE2 synthesis by 3T3 fibroblasts in cell culture.
The cells are nourished in a medium enriched with arachidonic acid which leads to increased secretion of eicosanoids into the medium.
The formation of prostaglandin PGE2 will be followed as a marker of eicosanoid synthesis, because it is a stable molecule secreted preferentially by 3T3 fibroblasts. The anti-inflammatory potential of an active ingredient may then be investigated by following the decrease in secretion of PGE2 in the culture medium.
Quantification of PGE2 will be achieved using an enzyme-linked immunosorbant assay (ELISA). In principle, the PGE2 expressed by the cells in culture medium will compete with enzyme-linked PGE2 for available antibody, which is a constant. The concentration of enzyme-linked PGE2 is also constant and quantified prior to testing. The enzyme linked to PGE2 prior to testing is acetylcholinesterase. Since the quantity of PGE2 expressed by 3T3 cells in culture will vary based on the concentration of GC-100 present, the amount of antibody available to bind to the enzyme-linked PGE2 versus that produced by the 3T3 cells assumes an inverse relationship that is dependent on Brownian motion. After eliminating unreacted PGE2 through washing, substrate is added that binds to the enzyme-PGE2-antibody complex to generate a yellow color that is strongly evident using spectrophotometer set at 412 nm. The amount of light transmitted through the test sample is directly proportional to the intensity of the color change and, consequently, to the concentration of PGE2-enzyme-antibody complex.
Create a mother solution (solution #1) containing complete DMEM, alcohol, and 2×10^5 3T3 fibroblasts for plating onto 25 cm^2 culture dishes. Using a compounding dilution technique, prepare the following solutions, using 5 mL of media per plate: • Solution #2: Solution #1 plus arachidonic acid (10^−3% P/V) • Solution #3: Solution #2 plus indomethacin (0,1,10^−3% P/V) • Solution #4: Solution #2 plus GC-100 0.5% • Solution #5: Solution #2 plus GC-100 1.0%
Incubate all preparations for 24 hours at 37° C. Recover the supernatant media, and if needed deep freeze it at −20° C. before quantification. Count the number of surviving cells using a coulter counter. Establish a calibration curve of the quantity of PGE2. Quantify the supernatant media using an enzyme-linked immunosorbant assay kit specific for PGE2 (Cayman), using a Dynotech microplate reader (MR500) with a filter set at 412 nm. Calculate the % inhibition of PGE2 synthesis. The results are shown in Table 4 and FIG. 10, which is a graph showing mean suppression of PGE2 concentration in test media comprising indomethacin or GC-100.
A general note: ELISA stands for enzyme-linked immunosorbent assay.

A further data set relates to photodamaged human skin. Briefly: Pilot open label study on photoaged skin: panelist questionnaire and side effects. The data set is classed as in vivo. The protocol:
A pilot open label study was conducted to establish the efficacy of GC-100 on photoaged skin in a clinical setting.
Primary endpoints for this study were as follows: • 1. Epidermal skin thickness was measured using high frequency ultrasound. • 2. Panelists regard for their overall appearance and any changes noted in the appearance of their wrinkles, lentigines, facial acne and pore size were used in qualitative analysis. In addition, panelists were asked to comment on irritation, novel rashes, and other side effects during the study period.
An open label, six week pilot study to examiner the regenerative effect of GC-100 was performed on 15 women with mild to moderate dermatoheliosis as defined by clinical examination. Exclusion criteria selected against patients with a history of retinoic acid use, dermabrasion, or chemical peel application within 6 months prior to study onset. However, all patients had used one or more of these products previously. After appropriate informed consent was obtained, baseline measurements of epidermal thickness using high frequency untrasonography (20 MHz and above) were collected using skin at the infraorbital prominence. Three measurements were taken at each site and averaged to yield a result. GC-100 was applied to the face and neck according to the following schedule: • Weekly: GC-100 applied in mask vehicle • Twice daily: GC-100 applied through lotion vehicle
The patient population was divided into two groups, where Group I was evaluated after 24 hours of product application, and Group II was evaluated at the conclusion of weeks 2, 4 and 6. A panelist questionnaire was completed during each evaluation session.

[3] abbreviates: DMEM + AA + 0.5% GC-100, column A.
Setting [4] is: DMEM + AA + 0.5% GC-100, column B.
[5] abbreviates: DMEM + AA + 0.5% GC-100, column C.
The mark [6] stands for this setting: DMEM + AA + 1% GC-100, column A.
The mark [7] stands for this setting: DMEM + AA + 1% GC-100, column B.
The mark [8] stands for this setting: DMEM + AA + 1% GC-100, column C.

For H-Lys-Pro-NH2 [GC-100], in data set [1], the “cytotoxic response (MTT)” value is given as “does not elicit a cytotoxic response”. The “% change of PGE2 vs DMEM + AA, MEAN” value in data set [2] (DMEM + AA + 0.5% GC-100) was −13%; in data set [2] (DMEM + AA + 1% GC-100), −23.9%. Also, the “% change of PGE2 vs DMEM + AA” value was −10.5% in data set [2] (setting [3]); −19.7% in data set [2] (setting [4]); −8.7% in data set [2] (setting [5]); −23.9% in data set [2] (setting [6]); −27.7% in data set [2] (setting [7]); −20.2% in data set [2] (setting [8]). Also, the “[PGE2]” value in data set [2] (setting [3]) was found to be 2.81 pg/mL; in data set [2] (setting [4]), 2.41 pg/mL; in data set [2] (setting [5]), 2.62 pg/mL; in data set [2] (setting [6]), 2.39 pg/mL; in data set [2] (setting [7]) it was 2.17 pg/mL; in data set [2] (setting [8]) it was 2.29 pg/mL. The “mean decrease of PGE2 expression below untreated control” value in data set [2] (GC-100 1%) is recorded as 24%. In addition, the “Incidence of side effects” value with photodamaged human skin (panelist questionnaire) is recorded as 0%. The “Positive response: Decreased appearance of lentigines” value in the data set on photodamaged human skin (panelist questionnaire) stood at 54%. The “Positive response: Decreased appearance of pores” value with photodamaged human skin (panelist questionnaire) was 92%. Further, the “Positive response: Decreased appearance of wrinkles” value in the data set on photodamaged human skin (panelist questionnaire) was found to be 62%. In the data set on photodamaged human skin (panelist questionnaire), the “Positive response: Decreased incidence of blemishes” value is 92%. In the data set with photodamaged human skin (panelist questionnaire), the “Positive response: Improved overall cosmetic appearance” value turned out to be 92%. For the same substance, the “clinical irritation during the study” value in the data set with photodamaged human skin (six week study, face and neck) is reported as “No clinically detectable irritation”.
